In data set [1] the test system is Balb/c male mice. Briefly: Test for edema on ear in mouse (PMA-induced). It counts as in vivo. The settings on record: 1 mg per murine ear, PMA 0.8 μg, measured five hours later. How it is done: Test for Edema on Ear in Mouse
Using Balb/c male mice (5 weeks old), a test compound dissolved in acetone was applied in an amount of 20 μL to the inside the ear. Ten minutes after the application of the test compound, an acetone solution (20 μL) containing 0.8 μg of PMA (phorbol 12-myristate 13-acetate) was applied. Five hours later, the thickness (hyperplasia) of the ear was measured by a dial sickness gauge. Acetone alone was applied to the control group. The inhibition rate (%) of edema on the ear was calculated based on the following equation.

Data set [2] concerns the target T1, human CB2 receptor (Homo sapiens, UniProt P34972).
T1 construct: expressed in transfected cells
Briefly: Human CB2 receptor binding inhibition test ([3H]CP-55,940, CHO membrane fractions). The settings on record: [3H]CP-55,940, membrane fractions of CHO cells stably expressing human CB2 receptor, 25° C., 2 hours; read-out: CB2 IC50 (Inhibition of binding to human CB2 receptor). Put shortly: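 Membranes from CHO-DHFR(−) cells stably expressing human CB2 used for [3H]CP-55,940 binding; filter-bound radioactivity counted by scintillation after washes with 0.1% BSA buffer. Nonspecific binding defined with 2.0 μM CP-55,940; IC50 for inhibition of specific binding.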

Data set [3] deals with T1, human CB2 receptor. Briefly: Test for GTPγS binding via human CB2 receptor. It counts as biochemical. Particulars: human CB2 receptor CHO membrane fractions; read-out: EC50 value (effective concentration exhibiting 50% activity), GTPγS binding. How it is done: Test for GTPγS Binding Via Human CB2 Receptor
The CHO cells capable of stably expressing the human CB2 receptor were prepared in the same manner as in Experimental Example 1.

Data set [4] has as its system SD:IGS-series male rats. Description: Neuropathic pain test in rat (partial sciatic nerve clipping, von Frey filament). Particulars: oral administration 3, 10 and 30 mg/kg, one hour after administration, FIG. 1. It counts as in vivo. How it is done: Neuropathic Pain Test in Rat
Using SD:IGS-series male rats (5 weeks old), neuropathic pain model were prepared by partially clipping the sciatic nerve of the femoral region in accordance with the method of Seltzer et al. (SeltzerZ; Pain. 43(2):205-218 (1990)). When the plantar surface of the paw on the affected side was stimulated by touching with a von Frey filament(s) (nylon fiber for use in a touch test: North Coast Medical, Inc.), the pain threshold (load (g) applied to the filament when an animal responds to touch stimulation) was measured. The test compound was suspended in a 5% gum Arabic solution and administered in a dose of 0 mg/kg, 3 mg/kg, 10 mg/kg and 30 mg/kg. One hour after the administration, pain threshold (g) was measured.

In data set [5] the target is T2, human CB1 receptor (Homo sapiens, UniProt P21554).
T2 construct: expressed in transfected cells
T2 sequence (P21554 whole entry): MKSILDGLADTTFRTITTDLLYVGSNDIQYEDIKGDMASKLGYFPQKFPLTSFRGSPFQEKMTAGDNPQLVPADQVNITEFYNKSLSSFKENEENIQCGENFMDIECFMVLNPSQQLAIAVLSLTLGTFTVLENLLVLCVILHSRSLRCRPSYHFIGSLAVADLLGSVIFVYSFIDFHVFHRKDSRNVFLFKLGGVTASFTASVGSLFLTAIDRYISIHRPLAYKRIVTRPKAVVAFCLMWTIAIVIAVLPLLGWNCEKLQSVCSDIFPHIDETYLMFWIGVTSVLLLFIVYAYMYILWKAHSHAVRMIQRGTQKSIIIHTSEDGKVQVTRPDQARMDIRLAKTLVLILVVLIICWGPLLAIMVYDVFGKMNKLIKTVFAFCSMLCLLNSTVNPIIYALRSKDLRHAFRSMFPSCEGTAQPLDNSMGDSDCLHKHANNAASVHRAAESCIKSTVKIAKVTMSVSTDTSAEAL
Description: Human CB1 receptor binding inhibition test. Particulars: CHO-DHFR(−) cells stably expressing human CB1 receptor, same manner as Experimental Example 1. As for the experimental part:
Human CB1 Receptor Binding Inhibition Test
The CHO-DHFR(−) cells capable of stably expressing a CB1 receptor were prepared in the same manner as in Experimental Example 1. The binding test to the human CB1 receptor was performed to obtain 50% inhibitory concentration (IC50 value) of a test compound.

For data set [6], the target named is T2, human CB1 receptor. Description: Test for GTPγS binding via human CB1 receptor. It counts as biochemical. The settings on record: human CB1 receptor CHO membrane fractions; maximum activity of each compound regarded as 100%; read-out: EC50 value (effective concentration exhibiting 50% activity), [35S]GTPγS binding. How it is done: Test for GTPγS Binding Via Human CB1 Receptor
CHO cells capable of stably expressing the human CB1 receptor were prepared in the same manner as in Experimental Example 2. The membrane fractions thereof were incubated together with a test compound in an assay buffer [50 mM Tris-HCl (pH 7.4), 2.5 mM EDTA, 5 mM MgCl2, 3 μM GDP (manufactured by SIGMA), 30 μg/ml Saponin (manufactured by SIGMA)] containing 0.2% bovine serum albumin at 30° C. for 30 minutes. Thereafter, 0.1 nM [^35S]GTPγS (manufactured by Perkin Elmer) was added to the buffer, incubation was performed at 30° C. for 30 minutes. The resultant solution was filtrated by a glass filter GF/C and washed. Thereafter, radioactivity on the glass filter was measured by a liquid scintillation counter. The nonspecific binding was measured […].
In general terms: Binding of GTPγS marks nucleotide exchange on a G protein.

In data set [7] the test system is Jcl: ICR-series male mice. Briefly: Writhing test with acetic acid in mouse. It counts as in vivo. The settings on record: orally administered 30 mg/kg, acetic acid i.p. one hour after administration. As for the experimental part:
Writhing Test with Acetic Acid in Mouse
This test was performed in accordance with the method of Futaki N et al. (Gen Pharmacol. 24(1):105-110 (1993). A test compound suspended in a 5% gum Arabic solution was orally administered to Jcl: ICR-series male mice (5 weeks old). One hour after the administration of the test compound, a 0.9% aqueous acetic acid solution was intraperitoneally administered. Five minutes after the administration, the number of abdomen stretch movements (pain-related behavior) were counted for 10 minutes. Only the 5% gum Arabic solution was orally administered to the control group. A pain-related behavior inhibition rate (%) was obtained based on the following equation.
On the technique in general: An intraperitoneal irritant provokes the stretching counted in writhing tests.

T1 sequence (P34972 whole entry): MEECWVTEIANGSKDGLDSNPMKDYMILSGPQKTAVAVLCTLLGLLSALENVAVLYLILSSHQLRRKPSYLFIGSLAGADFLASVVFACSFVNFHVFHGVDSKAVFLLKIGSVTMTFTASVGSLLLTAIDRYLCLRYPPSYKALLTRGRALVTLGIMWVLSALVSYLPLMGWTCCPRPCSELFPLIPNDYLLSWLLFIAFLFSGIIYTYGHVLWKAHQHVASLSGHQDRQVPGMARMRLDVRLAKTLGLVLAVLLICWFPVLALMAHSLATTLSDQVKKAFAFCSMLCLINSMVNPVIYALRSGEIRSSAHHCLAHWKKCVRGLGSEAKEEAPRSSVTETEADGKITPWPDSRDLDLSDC

With `Cc1c(C(C)(C)C)s/c(=N\C(=O)c2cccc(C(F)(F)F)c2)n1CC1CC1` [compound 184], the “inhibition rate of edema on the ear” value in data set [1] was determined as 65%. Besides, the half-maximal inhibitory concentration (IC50) (usually the concentration that gives 50% inhibition) in data set [2] worked out at 12 nM. Further, the EC50 in data set [3] was 9.8 nM. The pain threshold result in data set [4] is “increased pain threshold in a dose depending manner”.
Take `Cc1cccc(C(=O)/N=c2\sc(C(C)(C)C)c(C)n2CC2CC2)c1Br` [compound 247]: the melting point (in general, the temperature of the solid-liquid transition) was in the range of 142 to 144 °C. The compound also yielded an IC50 in data set [5] of 3 nM. Further, the EC50 in data set [6] came to 33 nM. Besides, in data set [7], the “pain-related behavior inhibition rate” value stood at 93.0%. Further, in data set [2], the IC50 worked out at 0.3 nM.
Consider `Cc1cccc(C(=O)/N=c2\sc(C(C)(C)C)c(C)n2CC2CC2)c1I` [compound 249], for which the melting point fell in the range of 149 to 151 °C. Further, the IC50 in data set [5] is 2 nM. Further, the EC50 in data set [6] came to 19 nM. In data set [2], the IC50 worked out at 0.4 nM.

These data come from patent publication US20080312435A1, “Imine Compound” (TAISHO PHARMACEUTICAL CO., LTD., priority 2004, published 2008).
